Test systems include SF-295; MDA-MB-231; M14; HOP-62; RXF 393; HCT-15; A498; NCI-H23; K562; BT-549; PC-3; HT-29; COLO 205; KM12; TK-10; SNB-75; MDA-MB-435; SNB-19; SK-MEL-2; HOP-92.
What all share (experiment): NCI anticancer screen, dose series, 48 h

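Each compound was tested at five concentrations against cells in 96-well plates for 48 hours. GI50 marks 50% less growth.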 The source made the active and inactive calls. No stated cut-off is given here; in the data, active = GI50 up to about 1.1 µM and inactive = higher.

The record followed here is ChEMBL document CHEMBL1201862, “PubChem BioAssay data set” (2004).

Consider `O=[N+]([O-])C(=C(Nc1cccc2cccnc12)Nc1cccc2cccnc12)C(Cl)=C(Cl)Cl`, for which the GI50 in the assay on SF-295 is 43 µM (inactive); in the assay on MDA-MB-231 it was 7.35 µM (inactive); with M14, > 100 µM (inactive); in the assay on HOP-62, > 100 µM (inactive); in the assay with RXF 393, 30 µM (inactive); in the assay with HCT-15, 31.2 µM. The GI50 with A498 was > 100 µM (inactive); in the assay with NCI-H23, 31.6 µM (inactive); with K562 it was 27.9 µM (inactive); in the assay with BT-549, 30.1 µM (inactive); in the assay on PC-3 it was > 76 µM (inactive); with HT-29 it was > 39 µM (inactive). The GI50 in the assay on COLO 205 was 31 µM (inactive); in the assay with KM12 it was 45.2 µM (inactive); in the assay with TK-10, > 100 µM (inactive); in the assay with SNB-75, > 100 µM (inactive); in the assay on MDA-MB-435 it was 36.6 µM (inactive); in the assay with SNB-19, > 96.2 µM (inactive).

With `CC1(C)C2CCC1(CC(=O)O)C(Cl)C2` (centres undefined), the GI50 in the assay on SF-295, with SK-MEL-2, with MDA-MB-231, with M14, in the assay with HOP-62 and with RXF 393 was > 100 µM (inactive) in each case. The GI50 in the assay with HCT-15 was greater than 100 µM; in the assay with A498 it was > 100 µM (inactive); in the assay on NCI-H23, > 100 µM (inactive); in the assay on K562 it was > 100 µM (inactive); with BT-549, > 100 µM (inactive); in the assay on PC-3, > 100 µM (inactive). The GI50 in the assay with HT-29, in the assay on COLO 205, with KM12, with TK-10, with SNB-75 and in the assay with MDA-MB-435 was > 100 µM (inactive) in each case. In addition, the GI50 in the assay with SNB-19 was > 100 µM (inactive).

Regarding `Cc1nc2ccccc2c(=O)n1NC(=O)c1ccccc1O`, the GI50 in the assay on HOP-92, in the assay with SF-295, in the assay with MDA-MB-231, with M14, in the assay on HOP-62 and in the assay on RXF 393 was > 100 µM (inactive) throughout. Also, the GI50 in the assay on HCT-15 was greater than 100 µM; in the assay with A498, > 100 µM (inactive); with NCI-H23 it was > 100 µM (inactive); in the assay on K562, > 100 µM (inactive); in the assay with BT-549, > 100 µM (inactive); in the assay on PC-3, > 100 µM (inactive). For the same molecule, the GI50 in the assay with HT-29, in the assay on COLO 205, in the assay with KM12, with TK-10, in the assay with SNB-75 and in the assay with MDA-MB-435 was > 100 µM (inactive) throughout. The GI50 in the assay with SNB-19 was > 100 µM (inactive).

Take `COC(=O)/C=C(/C(=O)OC)c1c(C)c(C)c2c(C)cc(C)cc(C)c1-2`: the GI50 with HOP-92 is 21.2 µM (inactive); in the assay on SF-295, 20.9 µM (inactive); in the assay with SK-MEL-2, 26.2 µM (inactive); in the assay on MDA-MB-231, 18.1 µM (inactive); in the assay with M14 it was 8.93 µM (inactive); in the assay on HOP-62, 23 µM (inactive). In addition, the GI50 with RXF 393 was 26.9 µM (inactive); with HCT-15, 8.85 µM; with A498 it was 97.9 µM (inactive); in the assay with NCI-H23 it was 23.8 µM (inactive); in the assay with K562 it was > 100 µM (inactive); with BT-549, 22.4 µM (inactive). Further, the GI50 in the assay with PC-3 was 28.8 µM (inactive); with HT-29, 11.6 µM (inactive); in the assay with COLO 205 it was 29.4 µM (inactive); with KM12, 32.7 µM (inactive); in the assay with TK-10 it was 55.1 µM (inactive); in the assay with MDA-MB-435 it was 4.6 µM (inactive). Also, the GI50 with SNB-19 is 58.7 µM (inactive).

Take `CCCCCCC(N)(CCCCCC)C(=O)Nn1c(C)ccc1C`: the GI50 with SF-295 is > 100 µM (inactive); in the assay with SK-MEL-2 it was > 100 µM (inactive); in the assay with MDA-MB-231, 88.3 µM (inactive); in the assay with M14, > 100 µM (inactive); with HOP-62, > 100 µM (inactive); in the assay on RXF 393, 25.7 µM (inactive). The GI50 in the assay on HCT-15 is 24 µM; with A498, > 100 µM (inactive); in the assay with NCI-H23 it was 15.5 µM (inactive); in the assay on K562, > 100 µM (inactive); in the assay on BT-549, > 100 µM (inactive); in the assay on PC-3, 5.14 µM (inactive). For the same molecule, the GI50 in the assay on HT-29 was 28.4 µM (inactive); with COLO 205, 57.4 µM (inactive); in the assay with KM12 it was 15.5 µM (inactive); in the assay on TK-10, > 100 µM (inactive); in the assay on SNB-75, 29.4 µM (inactive); with MDA-MB-435, > 100 µM (inactive). The GI50 with SNB-19 was > 100 µM (inactive).

With `CC1(C)C2CCC1C(=O)C(C=O)C2` (centres undefined), the GI50 in the assay on SF-295, with SK-MEL-2, in the assay on MDA-MB-231, with M14, with HOP-62 and in the assay on RXF 393 was > 100 µM (inactive) throughout. The GI50 in the assay on HCT-15 is 49.5 µM; in the assay with A498, > 100 µM (inactive); in the assay on NCI-H23, > 100 µM (inactive); in the assay with K562 it was > 100 µM (inactive); in the assay on BT-549, > 100 µM (inactive); with PC-3, > 100 µM (inactive). Besides, the GI50 with HT-29 was > 100 µM (inactive); with COLO 205, > 100 µM (inactive); in the assay on KM12, > 100 µM (inactive); in the assay on TK-10, > 100 µM (inactive); in the assay on SNB-75, 79.1 µM (inactive); in the assay on MDA-MB-435, > 100 µM (inactive). Moreover, the GI50 with SNB-19 is > 100 µM (inactive).

Consider `O=CC(O)C(O)C(O)C(O)C(=O)NCCCCCCCCCCCCNC(=O)C(O)C(O)C(O)C(O)C=O` (centres undefined), for which the GI50 with HOP-92, in the assay on SF-295, with SK-MEL-2, with MDA-MB-231, in the assay with M14 and with HOP-62 was > 100 µM (inactive) in each case. Besides, the GI50 in the assay on RXF 393 is > 100 µM (inactive); in the assay with HCT-15, greater than 100 µM; in the assay on A498 it was > 100 µM (inactive); in the assay on NCI-H23, > 100 µM (inactive); in the assay on BT-549, > 100 µM (inactive); in the assay with PC-3, > 100 µM (inactive). Besides, the GI50 with HT-29, with COLO 205, in the assay with KM12, in the assay with TK-10, with MDA-MB-435 and in the assay with SNB-19 was > 100 µM (inactive) throughout.

On to `CN1CN(c2ccccc2)C2(CCN(CCCN(C)c3ccc(F)cc3)CC2)C1=O`, for which the GI50 is 14.9 µM (inactive) in the assay with SF-295; 17.5 µM (inactive) in the assay with SK-MEL-2; 14.3 µM (inactive) in the assay with MDA-MB-231; 16.2 µM (inactive) in the assay on M14; 17.7 µM (inactive) in the assay with HOP-62; 16.3 µM (inactive) in the assay on RXF 393. Also, the GI50 in the assay on HCT-15 was 22.3 µM; in the assay on A498, 29.4 µM (inactive); in the assay on NCI-H23, 19.1 µM (inactive); with K562, 1.58 µM (inactive); in the assay on BT-549, 15.2 µM (inactive); with PC-3 it was 23.4 µM (inactive). In addition, the GI50 in the assay with HT-29 is 10.1 µM (inactive); with COLO 205, 11.6 µM (inactive); in the assay on KM12, 16 µM (inactive); in the assay on TK-10 it was 18.9 µM (inactive); with SNB-75 it was 16.9 µM (inactive); in the assay on MDA-MB-435, 18.2 µM (inactive). Besides, the GI50 in the assay on SNB-19 was 20 µM (inactive).

For `Fc1cccc(Cl)c1/C=N\N=C1c2ccccc2-c2ccccc21`, the GI50 in the assay on HOP-92 is > 100 µM (inactive); in the assay on SF-295, 61.7 µM (inactive); in the assay on SK-MEL-2, > 100 µM (inactive); in the assay with MDA-MB-231 it was 90.4 µM (inactive); with M14 it was > 100 µM (inactive); in the assay on HOP-62, 65.6 µM (inactive). The GI50 in the assay on RXF 393 was > 100 µM (inactive); in the assay on HCT-15, 75.2 µM; with A498, > 100 µM (inactive); in the assay with NCI-H23, > 100 µM (inactive); with K562, > 100 µM (inactive); in the assay on BT-549, > 100 µM (inactive). Besides, the GI50 with PC-3 was 97.9 µM (inactive); in the assay on HT-29, 58.9 µM (inactive); with COLO 205, > 100 µM (inactive); with KM12, 40.7 µM (inactive); with TK-10, > 100 µM (inactive); in the assay on MDA-MB-435 it was 36 µM (inactive). The GI50 with SNB-19 is 98.9 µM (inactive).

As to `[N-]=[N+]=CC(=O)OC1CCc2ccccc21` (centres undefined), the GI50 is 44.6 µM (inactive) in the assay with HOP-92; 40.8 µM (inactive) in the assay with SF-295; > 100 µM (inactive) in the assay with SK-MEL-2; 44.1 µM (inactive) in the assay with MDA-MB-231; 55.2 µM (inactive) in the assay on HOP-62; 60.3 µM (inactive) with RXF 393. In addition, the GI50 with HCT-15 is greater than 100 µM; with A498, > 100 µM (inactive); in the assay with NCI-H23, 82.8 µM (inactive); in the assay with K562, > 100 µM (inactive); in the assay with BT-549, > 100 µM (inactive); with PC-3, > 100 µM (inactive). Further, the GI50 in the assay with HT-29 is > 100 µM (inactive); in the assay with COLO 205, 73.1 µM (inactive); in the assay with TK-10 it was 59.6 µM (inactive); with MDA-MB-435, > 100 µM (inactive); in the assay with SNB-19, > 100 µM (inactive).

Regarding `CC(=O)c1cn(-c2ccc(Cl)cc2)c(=O)c2c(N)n[nH]c12`, the GI50 in the assay with SF-295 was > 100 µM (inactive); in the assay on SK-MEL-2, > 100 µM (inactive); in the assay on MDA-MB-231 it was > 100 µM (inactive); in the assay on HOP-62, > 100 µM (inactive); in the assay with RXF 393, > 100 µM (inactive); with HCT-15, greater than 100 µM. In addition, the GI50 in the assay with A498 was > 100 µM (inactive); with NCI-H23, > 100 µM (inactive); in the assay on K562 it was 22.3 µM (inactive); in the assay on BT-549 it was 2.56 µM (inactive); in the assay with PC-3, > 100 µM (inactive); in the assay with HT-29, > 100 µM (inactive). The GI50 with COLO 205, with KM12, in the assay on TK-10, in the assay on SNB-75, in the assay with MDA-MB-435 and with SNB-19 was > 100 µM (inactive) each time.
